Patent publication US20120225061A1, “TETRASUBSTITUTED CYCLOHEXYL COMPOUNDS AS KINASE INHIBITORS” (priority 2011, published 2012)
Read-outs that look alike come from different tables or passages of the source.

Columns and labels:
[1] = test system: KMS11 (human myeloma cell line); experiment: Cell proliferation assay (CellTiter-Glo) in KMS11 cells; format: cell-based; conditions: KMS-11, 72 h, read-out: KMS11-luc EC50
Outline: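 KMS11 cells at 2000 per well in IMDM/10% FBS were exposed to compound for 3 days. Viability was read by CellTiter-Glo luminescence.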

Pim2 kinase [2] = target: T1, Pim2 kinase (Homo sapiens, UniProt Q9P1W9); experiment: Pim2 AlphaScreen assay (high ATP)
T1 sequence (Q9P1W9 whole entry): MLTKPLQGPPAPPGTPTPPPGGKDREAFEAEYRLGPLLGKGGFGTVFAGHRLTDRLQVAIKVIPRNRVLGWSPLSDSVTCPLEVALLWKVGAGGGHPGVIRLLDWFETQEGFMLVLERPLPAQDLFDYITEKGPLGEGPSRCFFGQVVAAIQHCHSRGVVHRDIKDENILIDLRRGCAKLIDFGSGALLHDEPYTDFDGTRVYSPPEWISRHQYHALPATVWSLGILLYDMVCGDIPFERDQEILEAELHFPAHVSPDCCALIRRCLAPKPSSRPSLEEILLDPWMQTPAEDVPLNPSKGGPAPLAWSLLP

Pim2 kinase [3] = target: T1, Pim2 kinase; experiment: KinaseGlo Pim2 ATP depletion assay; format: biochemical; conditions: Table 4, 5 nM PIM2, 4 μM ATP, 10 μM BAD peptide
Description: The activity of PIM2 is measured using a luciferase-luciferin based ATP detection reagent to quantify ATP depletion resulting from kinase-catalyzed phosphoryl transfer to a peptide substrate. Compounds to be tested are dissolved in 100% DMSO and directly distributed into white 384-well plates at 0.5 μl per well. […] After 15 minutes, 10 μl of 8 μM ATP in assay buffer is added. Final assay concentrations are 5 nM PIM2, 4 μM ATP, 10 μM BAD peptide and 2.5% DMSO. The reaction is performed until approximately 50% of the ATP is depleted, then stopped with the addition of 20 μl KinaseGlo Plus (Promega Corporation) solution. The stopped reaction is incubated for 10 minutes and the remaining ATP detected via luminescence on the Victor2 (Perkin Elmer).

Pim1 kinase = Pim1 kinase (Homo sapiens, UniProt P11309); experiment: Pim1 AlphaScreen assay (high ATP)
Chain of Pim1 kinase (P11309 whole entry): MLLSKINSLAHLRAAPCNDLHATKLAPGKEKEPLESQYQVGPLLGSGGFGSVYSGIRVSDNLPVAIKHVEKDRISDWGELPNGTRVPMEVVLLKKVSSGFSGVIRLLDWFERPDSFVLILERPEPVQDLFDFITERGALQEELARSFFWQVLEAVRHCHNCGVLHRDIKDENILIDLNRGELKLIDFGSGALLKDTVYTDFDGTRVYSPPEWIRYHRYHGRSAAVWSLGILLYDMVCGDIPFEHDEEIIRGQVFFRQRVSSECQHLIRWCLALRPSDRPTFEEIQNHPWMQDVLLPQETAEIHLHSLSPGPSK

Pim3 kinase = Pim3 kinase (Homo sapiens, UniProt Q86V86); experiment: Pim3 AlphaScreen assay (high ATP)

Row | Structure (SMILES) | EC50 ([1]; Table 4, 3 days) [nM] | EC50 ([1]; Table 5, 3 days) [nM] | IC50 (Pim2 kinase [2]) [nM] | IC50 (Pim2 kinase [3]) [nM] | IC50 (Pim1 kinase) [nM] | IC50 (Pim3 kinase) [nM]
1 | C[C@H]1C[C@@H](c2ccncc2NC(=O)c2nc(-c3ncccc3F)c(F)cc2N)C[C@@H](O)C1(C)O (stereo in doubt) [Example 130, 5-amino-N-(4-((1R,3R,4R,5S)-3,4-dihydroxy-4,5-dimethylcyclohexyl)pyridin-3-yl)-3,3′-difluoro-2,2′-bipyridine-6-carboxamide] | 8960 | 8960 | 2140 | 8.8 | 9.82 | 383
2 | C[C@@H]1C[C@H](c2ccncc2NC(=O)c2csc(-c3c(F)cccc3F)n2)C[C@H](N)[C@@]1(C)O [Example 25, N-(4-((1S,3S,4S,5R)-3-amino-4-hydroxy-4,5-dimethylcyclohexyl)pyridin-3-yl)-2-(2,6-difluorophenyl)thiazole-4-carboxamide] | – | – | 8130 | 2010 | 111 | 992
3 | C[C@H]1C[C@@H](c2ccncc2NC(=O)c2csc(-c3c(F)cccc3F)n2)C[C@@H](N)[C@]1(C)O [Example 26, N-(4-((1R,3R,4R,5S)-3-amino-4-hydroxy-4,5-dimethylcyclohexyl)pyridin-3-yl)-2-(2,6-difluorophenyl) thiazole-4-carboxamide] | – | – | 109 | 20.8 | 1.9 | 17.2
4 | C[C@@H]1C[C@H](c2ccncc2NC(=O)c2ccc(F)c(-c3c(F)cccc3F)n2)C[C@H](N)[C@@]1(C)O [Example 28, N-(4-((1S,3S,4S,5R)-3-amino-4-hydroxy-4,5-dimethylcyclohexyl)pyridin-3-yl)-6-(2,6-difluorophenyl)-5-fluoropicolinamide] | – | – | 476 | 229 | 18.3 | 138
5 | C[C@@H]1C[C@H](c2ccncc2NC(=O)c2ccc(F)c(-c3c(F)cccc3F)n2)C[C@H](O)[C@]1(O)CF [Example 29, 6-(2,6-difluorophenyl)-5-fluoro-N-(4-((1S,3S,4S,5R)-4-(fluoromethyl)-3,4-dihydroxy-5-methylyclohexyl)pyridin-3-yl) picolinamide] | 3270 | 3270 | 428 | 14.9 | 6.7 | 201
6 | C[C@H]1C[C@@H](c2ccncc2NC(=O)c2ccc(F)c(-c3ccc(F)c(F)c3)n2)C[C@@H](O)[C@]1(C)O [Example 31, 6-(3,4-difluorophenyl)-N-(4-((1R,3R,4R,5S)-3,4-dihydroxy-4,5-dimethylcyclohexyl)pyridin-3-yl)-5-fluoropicolinamide] | ≥ 10000 | > 10000 | 22100 | 93.4 | 215 | 5480
7 | C[C@H]1C[C@@H](c2ccncc2NC(=O)c2ccc(F)c(-c3c(F)cc(N4CCOCC4)cc3F)n2)C[C@@H](O)[C@]1(C)O [Example 109, 6-(2,6-difluoro-4-morpholinophenyl)-N-(4-((1R,3R,4R,5S)-3,4-dihydroxy-4,5-dimethylcyclohexyl)pyridin-3-yl)-5-fluoropicolinamide] | – | 781 | 138 | – | 0.23 | 41.3
8 | C[C@H]1C[C@@H](c2ccncc2NC(=O)c2ccc(F)c(-c3c(F)cc(OCCO)cc3F)n2)C[C@@H](O)[C@]1(C)O [Example 111, 6-(2,6-difluoro-4-(2-hydroxyethoxy)phenyl)-N-(4-((1R,3R,4R,5S)-3,4-dihydroxy-4,5-dimethylcyclohexyl)pyridin-3-yl)-5-fluoropicolinamide] | – | 538 | 173 | – | 0.83 | 38.7
9 | C[C@H]1C[C@@H](c2ccncc2NC(=O)c2ccc(F)c(-c3c(F)cc(C4(F)CCOCC4)cc3F)n2)C[C@@H](O)[C@]1(C)O [Example 113, 6-(2,6-difluoro-4-(4-fluorotetrahydro-2H-pyran-4-yl)phenyl)-N-(4-((1R,3R,4R,5S)-3,4-dihydroxy-4,5-dimethylcyclohexyl)pyridin-3-yl)-5-fluoropicolinamide] | – | 248 | 128 | – | 0.55 | 127
10 | C[C@H]1C[C@@H](c2ccncc2NC(=O)c2nc(-c3nc(F)ccc3F)ccc2N)C[C@@H](O)[C@]1(C)O [Example 125, 5-amino-N-(4-((1R,3R,4R,5S)-3,4-dihydroxy-4,5-dimethylcyclohexyl)pyridin-3-yl)-3′,6′-difluoro-2,2′-bipyridine-6-carboxamide] | – | – | 2140 | 5.9 | 23.1 | 601

These reach a lower IC50 (Pim2 kinase [2]). Values come first.

Row | EC50 ([1]; Table 4, 3 days) [nM] | EC50 ([1]; Table 5, 3 days) [nM] | IC50 (Pim2 kinase [2]) [nM] | IC50 (Pim2 kinase [3]) [nM] | IC50 (Pim1 kinase) [nM] | IC50 (Pim3 kinase) [nM] | Structure (SMILES)
11 | – | 310 | 104 | – | 0.18 | 32.8 | CCN1CCC(c2cc(F)c(-c3nc(C(=O)Nc4cnccc4[C@H]4C[C@@H](O)[C@](C)(O)[C@@H](C)C4)ccc3F)c(F)c2)CC1 [Example 115, N-(4-((1R,3R,4R,5S)-3,4-dihydroxy-4,5-dimethylcyclohexyl)pyridin-3-yl)-6-(4-(1-ethylpiperidin-4-yl)-2,6-difluorophenyl)-5-fluoropicolinamide]
12 | – | 206 | 66.2 | – | 0.2 | 30.7 | C[C@H]1C[C@@H](c2ccncc2NC(=O)c2ccc(F)c(-c3c(F)cc(C4CCOCC4)cc3F)n2)C[C@@H](O)[C@]1(C)O [Example 108, 6-(2,6-difluoro-4-(tetrahydro-2H-pyran-4-yl)phenyl)-N-(4-((1R,3R,4R,5S)-3,4-dihydroxy-4,5-dimethylcyclohexyl)pyridin-3-yl)-5-fluoropicolinamide]
13 | – | 4150 | 56.5 | – | 0.11 | 18.3 | C[C@H]1C[C@@H](c2ccncc2NC(=O)c2ccc(F)c(-c3c(F)cc(OC4CCNCC4)cc3F)n2)C[C@@H](O)[C@]1(C)O [Example 112, 6-(2,6-difluoro-4-(piperidin-4-yloxy)phenyl)-N-(4-((1R,3R,4R,5S)-3,4-dihydroxy-4,5-dimethylcyclohexyl)pyridin-3-yl)-5-fluoropicolinamide]
14 | 130 | 133 | 50.1 | 2.2 | 0.71 | 22.8 | C[C@H]1C[C@@H](c2ccncc2NC(=O)c2ccc(F)c(-c3c(F)cccc3F)n2)C[C@@H](O)[C@@]1(O)CF [Example 30, 6-(2,6-difluorophenyl)-5-fluoro-N-(4-((1R,3R,4R,5S)-4-(fluoromethyl)-3,4-dihydroxy-5-methylcyclohexyl)pyridin-3-yl) picolinamide]
15 | – | 924 | 21.7 | – | 0.34 | 6.93 | C[C@H]1C[C@@H](c2ccncc2NC(=O)c2nc(-c3c(F)cc(C(C)(C)O)cc3F)ccc2N)C[C@@H](O)[C@]1(C)O [Example 114, 3-amino-6-(2,6-difluoro-4-(2-hydroxypropan-2-yl)phenyl)-N-(4-((1R,3R,4R,5S)-3,4-dihydroxy-4,5-dimethylcyclohexyl)pyridin-3-yl)picolinamide]
16 | 140 | 138 | 5.73 | 3.8 | 0.11 | 0.99 | C[C@H]1C[C@@H](c2ccncc2NC(=O)c2ccc(F)c(-c3c(F)cccc3F)n2)C[C@@H](N)[C@]1(C)O [Example 27, N-(4-((1R,3R,4R,5S)-3-amino-4-hydroxy-4,5-dimethylcyclohexyl)pyridin-3-yl)-6-(2,6-difluorophenyl)-5-fluoropicolinamide]
17 | – | 539 | 3.57 | – | 0.07 | 1.61 | C[C@H]1C[C@@H](c2ccncc2NC(=O)c2ccc(F)c(-c3c(F)cc(OCC(F)(F)F)cc3F)n2)C[C@@H](N)[C@]1(C)O [Example 118, N-(4-((1R,3R,4R,5S)-3-amino-4-hydroxy-4,5-dimethylcyclohexyl)pyridin-3-yl)-6-(2,6-difluoro-4-(2,2,2-trifluoroethoxy)phenyl)-5-fluoropicolinamide]
18 | – | 32 | 2.37 | – | 0.04 | 0.53 | C[C@H]1C[C@@H](c2ccncc2NC(=O)c2nc(-c3c(F)cccc3F)c(F)cc2N)C[C@@H](N)[C@]1(C)O [Example 147, 3-amino-N-(4-((1R,3R,4R,5S)-3-amino-4-hydroxy-4,5-dimethylcyclohexyl)pyridin-3-yl)-6-(2,6-difluorophenyl)-5-fluoropicolinamide]
19 | – | 49 | 1.66 | – | 0.02 | 0.53 | Cc1cc(F)c(-c2nc(C(=O)Nc3cnccc3[C@H]3C[C@@H](N)[C@](C)(O)[C@@H](C)C3)c(N)cc2F)c(F)c1 [Example 146, 3-amino-N-(4-((1R,3R,4R,5S)-3-amino-4-hydroxy-4,5-dimethylcyclohexyl)pyridin-3-yl)-6-(2,6-difluoro-4-methylphenyl)-5-fluoropicolinamide]
20 | – | 85 | 1.45 | – | 0.02 | 0.65 | C[C@H]1C[C@@H](c2ccncc2NC(=O)c2ccc(F)c(-c3c(F)cc(O[C@@H]4CCCOC4)cc3F)n2)C[C@@H](N)[C@]1(C)O [Example 148, N-(4-((1R,3R,4R,5S)-3-amino-4-hydroxy-4,5-dimethylcyclohexyl)pyridin-3-yl)-6-(2,6-difluoro-4-((R)-tetrahydro-2H-pyran-3-yloxy)phenyl)-5-fluoropicolinamide]
